# Values joined by “and” are separate entries in the source; they are usually repeats but may differ in a detail not shown here. Identical values can stand only once.
# Key:
# [1] = biological target: T1, Recombinant Human TACE/ADAM17 (Homo sapiens, UniProt P78536); experiment: Cell free TACE/ADAM17 activity; type: biochemical; settings: cell-free assay; AAT Sigma Aldrich, batch A6150; read-out: IC50 of TACE activity inhibition
# T1 construct: purchased R&D Systems 930-ADB-010
# Description: TACE activity and its inhibition by human AAT (AAT) was performed with Recombinant Human TACE/ADAM17 kit (930-ADB and ES003, R&D Systems) in black 96-well immuno plates (437111, ThermoFisher Scientific). The enzymatic activity of TACE/ADAM17 was measured by mixing 0.005 μg of rhTACE with 10 μM of Mca-PLAQAV-Dpa-RSSSR-NH2 fluorogenic peptide substrate III in assay buffer (25 mM Tris, 2.5 μM ZnCl2, 0.005% Brij-35 (w/v), pH 9.0) to a final volume of 100 μl. AAT (Sigma Aldrich, batch A6150) was resuspended in water (vehicle), control TACE/ADAM17 activity was assessed in presence of the vehicle (amount used for AAT 100 μM). AAT was added at different concentration (0, 6.25, 12.5, 25, 50 and 100 μM) to assess its dose-dependent inhibition of TACE/ADAM17. All conditions were performed in triplicates. Activity was measured as relative fluorescent unit (RFU) in a kinetic mode (9 time points over 5 min) with a SpectraMax iD3 Microplate Reader (low PMT gain, is exposition, top read at 1 mm, wavelength: excitation 320 nm, emission 405 nm). Bar graph as percentage of control activity was obtained by averaging the values obtained over the 5 min for each of the condition.
# TACE activity is assessed according to the manufacturer's instruction (Recombinant Human TACE/ADAM17 kit, 930-ADB, R&D Systems) in kinetic mode, without or with different AAT concentration. All conditions were done in triplicates and are shown as mean±SD (FIGS. 5A, 5B and 5C).
# ADAM-17 activity and its inhibition by human peptide 8 was measured with Recombinant Human ADAM-17 kit (Recombinant Human TACE/ADAM17 Protein, CF: 930-ADB-010 and Mca-PLAQAV-Dpa-RSSSR-NH2 Fluorogenic Peptide Substrate:ES003; R&D Systems) in black 96-well immunoplates (437111; Thermo Fisher Scientific). The enzymatic activity of ADAM-17 was measured by mixing 0.005 μg of rhADAM-17 with 10 μM of Mca-PLAQAV-Dpa-RSSSR-NH2 fluorogenic peptide substrate III in assay buffer (25 mM Tris, 2.5 μM ZnCl2, 0.005% Brij-35 (w/v), pH 9.0) to a final volume of 100 μL. Peptide 8 (Syngene) was dissolved in DMSO and diluted to the desired concentration in assay buffer. Control ADAM-17 activity was assessed in the presence of the assay buffer. […] All conditions were performed in triplicate. Activity was measured as relative fluorescent units (RFU) in endpoint mode (5 min) with a SpectraMax iD3 Microplate Reader (automatic PMT gain, wavelengths: excitation 320 nm, emission 405 nm).
# [2] = test system: C3-PMP22 transgenic mice (CMT1A); experiment: Sciatic nerve electrophysiology (EMG), CMT1A mouse study (50 mg/kg twice daily); type: in vivo; settings: for Compound muscle action potential (Mean ± SEM) / Nerve conduction velocity (Mean ± SEM): CMT1A + AAT; for Amplitude, MEAN / Amplitude, individual mice / Conduction velocity, MEAN / Conduction velocity, individual mice / T1 distal, individual mice / T2 proximal, individual mice: CMT1A + hAAT
# Excerpt: As a murine model of CMT1A we used C3-PMP22 transgenic mice (B6.Cg-Tg(PMP22)C3Fbas/J, The Jackson Laboratory) which express three copies of a wild-type human peripheral myelin protein 22 (PMP22) gene (Verhamme, Camiel, et al. Journal of Neuropathology & Experimental Neurology 70.5 (2011): 386-398). Mice were housed in macrolon cages with filter hoods, in a continuously air-filtered room, thereby avoiding contamination. During experiments, paired animals were caged at a constant temperature with a day/night cycle of 12/12 hours. Animals were fed (control tap water and nutrition) ad libitum. Animal protocol is approved by the Animal Studies Committee of Languedoc Roussillon. This protocol and the laboratory procedures comply with French legislation, which implements the European Directives (Reference Number: D3417223, APAFIS #23920-2020020320279696 v3). Animal health was followed on a daily basis to ensure that only animals in good health enter the testing procedures and follow up the study.
# (§1) Animals were split in 3 groups (wild-type control (subcutaneous 0.9% NaCl), CMT1A-vehicle (subcutaneous 0.9% NaCl), CMT1A-human alpha-1 antitrypsin (subcutaneous, twice daily, 50 mg/kg per injection)) of 3 mice each (3 weeks old males of 18±2.5 g at the beginning of study) and all went through the following protocol after 7 days of acclimation on site.
# (§2) On the first and last day of treatment, the neuromuscular performance of animals was tested with a rotarod test, grip test and sciatic nerve electrophysiology test. After the last treatment at 8 weeks, these tests were repeated, and animals were sacrificed and the left sciatic nerve was sampled for histological evaluation of the number and size of […].
# Sciatic nerve electrophysiology (EMG) provides sensitive and quantitative approach to measure compound muscle action potential and nerve conduction velocity amplitude in the animals and was done by stimulation of the sciatic nerve. Similar compound muscle action potential (CMAP) amplitudes were observed between groups at the baseline (6 weeks old).
# [3] = test system: C3-PMP22 transgenic mice (CMT1A); experiment: Sciatic nerve histology, CMT1A mouse study (50 mg/kg twice daily); type: in vivo; settings: 8 weeks old
# Description: as §1, §2
# [4] = test system: plasma TNFα; experiment: Plasma TNFα concentration, CMT1A mouse study (50 mg/kg twice daily); type: in vivo; settings: for Plasma TNFα concentration (Mean ± SEM): CMT1A mice
# Description: as §1
# Starting from the age of 4 weeks, animals were subjected to blood samplings for the determination of interleukin-6 (IL-6) and tumor necrosing factor alpha (TNFα) levels, as described in FIG. 16.
# [5] = CMT1A + AAT, 50 mg/kg twice daily sc
# [6] = CMT1A mice, AAT 50 mg/kg sc twice daily
# T1 sequence (P78536 215-671 limits assumed): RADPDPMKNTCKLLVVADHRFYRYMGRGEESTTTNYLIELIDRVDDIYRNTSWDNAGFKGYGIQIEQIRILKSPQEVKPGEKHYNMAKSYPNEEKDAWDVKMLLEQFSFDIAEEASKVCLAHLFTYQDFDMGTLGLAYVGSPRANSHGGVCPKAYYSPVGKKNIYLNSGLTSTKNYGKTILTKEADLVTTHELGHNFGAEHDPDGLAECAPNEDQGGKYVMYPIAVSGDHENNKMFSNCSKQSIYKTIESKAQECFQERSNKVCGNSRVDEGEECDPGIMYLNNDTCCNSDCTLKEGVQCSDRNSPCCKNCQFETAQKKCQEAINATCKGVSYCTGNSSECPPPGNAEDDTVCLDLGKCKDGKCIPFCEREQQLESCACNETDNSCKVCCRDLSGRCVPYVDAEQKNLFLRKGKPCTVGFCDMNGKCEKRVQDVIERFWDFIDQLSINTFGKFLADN
substance,measurement,setting,value
alpha1-antitrypsin (AAT) protein,IC50,[1],15.3 µM
same,NCV compared to the vehicle treated group,"[2]; CMT1A + AAT treated group, 8 weeks old",increase
same,Compound muscle action potential (Mean ± SEM),[2]; 6 weeks old,6.47 ± 0.30 mV
same,Nerve conduction velocity (Mean ± SEM),[2]; 6 weeks old,24.91 ± 4.13 m/s
same,Nerve conduction velocity (Mean ± SEM),[2]; 8 weeks old,20.89 ± 1.63 m/s
same,Compound muscle action potential (Mean ± SEM),"[2]; 8 weeks old, p < 0.05 vs CMT1A + vehicle",5.63 ± 1.18 mV
same,"Amplitude, MEAN",[2]; 6 weeks old (baseline),6.471 mV
same,"Amplitude, individual mice",[2]; 6 weeks old (baseline),7.030 mV and 6.025 mV and 6.359 mV
same,"Conduction velocity, MEAN",[2]; 6 weeks old (baseline),24.909 m/s
same,"Conduction velocity, individual mice",[2]; 6 weeks old (baseline),31.277 m/s and 17.182 m/s and 26.268 m/s
same,"T1 distal, individual mice",[2]; 6 weeks old (baseline),0.00202 s and 0.00207 s and 0.0016 s
same,"T2 proximal, individual mice",[2]; 6 weeks old (baseline),0.0025 s and 0.00295 s and 0.00217 s
same,"Amplitude, MEAN",[2]; 8 weeks old,5.627 mV
same,"Amplitude, individual mice",[2]; 8 weeks old,3.799 mV and 5.260 mV and 7.822 mV
same,"Conduction velocity, MEAN",[2]; 8 weeks old,20.892 m/s
same,"Conduction velocity, individual mice",[2]; 8 weeks old,23.904 m/s and 18.310 m/s and 20.464 m/s
same,"T1 distal, individual mice",[2]; 8 weeks old,0.00251 s and 0.00236 s and 0.00228 s
same,"T2 proximal, individual mice",[2]; 8 weeks old,0.00313 s and 0.00318 s and 0.00302 s
same,EMG parameters compared to the control,"[2]; CMT1A mice treated with AAT, 8 weeks old",improvement
same,axonal diameter compared to the vehicle treated group,[3]; [5],significant increase
same,g-ratio compared to the vehicle treated group,[3]; [5],decrease
same,total number of axons per surface compared to the vehicle group,[3]; [5],Slight increase
same,"Sciatic nerve histology, Axonal diameter (Mean ± SEM)",[3]; [6],2.53 ± 0.15 ^††† μm
same,"Sciatic nerve histology, Axons/100 μm^2 (Mean ± SEM)",[3]; [6],39.33 ± 4.81
same,"Sciatic nerve histology, g-ratio (Mean ± SEM)",[3]; [6],0.63 ± 0.009 ^†††
same,effect on plasma TNFα levels,"[4]; CMT1A + AAT, day 14 and day 29",no effect
same,Plasma TNFα concentration (Mean ± SEM),[4]; Day 1 (baseline),2.94 ± 0.17 pg/mL
same,Plasma TNFα concentration (Mean ± SEM),[4]; Day 8,3.70 ± 0.41 pg/mL
same,Plasma TNFα concentration (Mean ± SEM),[4]; Day 14,5.15 ± 0.393 pg/mL
same,Plasma TNFα concentration (Mean ± SEM),[4]; Day 29,10.67 ± 0.833 pg/mL

# Source: US20260028390A1, “ALPHA1-ANTITRYPSIN FOR USE IN THE TREATMENT OF DISEASES OR DISORDERS OF THE NERVOUS SYSTEM SUCH AS CHRONIC INFLAMMATORY DEMYELINATING POLYNEUROPATHY” (Ageronix SA, priority 2022, published 2026)
